Patent US9522139B2, “Fructose 1, 6-biphosphatases as new targets for diagnosing and treating breast cancer brain metastasis” (The University of Houston System, priority 2011, dated 2016)

Legend:
MDA-MB-231Br3 cells [1] = assay: Resistance to chemotherapeutic reagents, brain metastatic vs parental cells (FIG. 1A); type: cell-based; conditions: MDA-MB-231Br3 vs parental MDA-MB-231, triplicates
MDA-MB-231Br3 cells [2] = assay: Cell survival assay (trypan blue uptake) in glucose-free medium; type: cell-based
Method: By way of non-limiting example, to test the role of BCAAs in the survival of brain metastatic breast cancer cells, changes in the concentrations of BCAAs over time can be measured in MDA-MB-231 and MDA-MB-231Br3 cells when cultured in a glucose-free medium. […] To measure the ability of these two types of cells to oxidize BCAAs, ^14C-Leucine can be added to the culture media and the resulting ^14CO2 measured after 8 hours of incubation. […] To investigate the mechanism by which brain metastatic cells gain such higher activity of BCAA oxidation, the levels of the rate limiting enzymes of BCAA oxidation, branched chain ketoacids dehydrogenase E1 subunit (BCKDH-E1), the inactivated form of BCKDH-E1, pSer293-BCDKH-E1 (phosphorylated at serine 293 of the E1 subunit), the BCKDH inactivating kinase, and the branched chain ketoacids dehydrogenase kinase (BDK) can be determined in both brain metastatic cells and parental cells. […] Also, to test the pro-survival role of BCAAs in MDA-MB-231Br3 cells, BCAAs can be removed from the glucose-free medium containing glutamine. […] For these tests, trypanblue uptake can used to identify dead cells, and triplicates of samples can be used in each group.
Cells were seeded in 6-well plates in full MEM medium containing 5% dialyzed FBS and supplemented with 100 IU/ml penicillin and 100 μg/ml streptomycin (Invitrogen, CA, USA) and 292 ug/ml L-Glutamine (Invitrogen, CA, USA). Medium were replaced with modified MEM after 12 hours. Modified MEM contains basic formula of 5% dialyzed FBS and 100 IU/ml penicillin and 100 μg/ml streptomycin, other supplements like glutamine, glucose, etc. were added in the basic formula according to different needs of experimental groups. Both cell culture medium and trysinized cells were collected after 48 hours and stained with trypan blue. Viability counting was counted by Countess® Automated Cell Counter (Invitrogen, CA, USA).

| SMILES | resistance of MDA-MB-231Br3 cells to chemotherapeutic reagent relative to parental cells (MDA-MB-231Br3 cells [1]) | cell death upon inhibition of GLUD (MDA-MB-231Br3 cells [2]; MDA-MB-231Br3 cells cultured in glucose-free medium, trend reverted upon addition of α-KG, FIG. 2D) | effect of incremental removal of BCAAs on sensitivity to GLUD inhibition (MDA-MB-231Br3 cells [2]; MDA-MB-231Br3 cells, glucose-free medium, 24 hour treatment, FIG. 3G) | sensitivity to GLUD inhibition, brain metastatic cells vs parental MDA-MB-231 cells (MDA-MB-231Br3 cells [2]; in the absence of glucose, FIG. 2D) |
| --- | --- | --- | --- | --- |
| COc1cccc2c1C(=O)c1c(O)c3c(c(O)c1C2=O)C[C@@](O)(C(=O)CO)C[C@@H]3O[C@H]1C[C@H](N)[C@H](O)[C@H](C)O1 [adriamycin] | more resistance |  |  |  |
| O=C(O[C@@H]1Cc2c(O)cc(O)cc2O[C@@H]1c1cc(O)c(O)c(O)c1)c1cc(O)c(O)c(O)c1 [EGCG, epigallocatechin gallate] |  | dose dependent cell death | significantly sensitizes | more sensitive |
| CC(=O)O[C@H]1C(=O)[C@@]2(C)[C@H]([C@H](OC(=O)c3ccccc3)[C@]3(O)C[C@H](OC(=O)[C@H](O)[C@@H](NC(=O)c4ccccc4)c4ccccc4)C(C)=C1C3(C)C)[C@]1(OC(C)=O)CO[C@@H]1C[C@@H]2O [Taxol] | more resistance |  |  |  |
